# From patent US9446053B2, “Method for enhancing the secretion of GLP-1 using bitter compounds” (priority 2013, dated 2016)
# Read-outs that look alike come from different tables or passages of the source.
# Experiments:
# [1] = test system: intestinal endocrine cell line STC-1; experiment: Bitter compound stimulating the secretion of GLP-1 of STC-1 cells (GLP-1 ELISA normalised to MTT cell viability, vehicle = 1); type: cell-based, mouse; conditions: for fold induction at 1000 µM: 1 mM; for secretion of GLP-1, fold comparing to the vehicle group: p<0.05
# Procedure: The embodiment of the present invention use a proglucagon-expression cell line STC-1 for study. The STC-1 cells are divided into the experimental groups and the control group. […] The secretion of GLP-1 is obtained by calculating the data gathered from the experiment using the standard curve after treating intestinal endocrine cell line STC-1 with different bitter compounds. Cell viability is measured by MTT assay after treating intestinal endocrine cell line STC-1 with different bitter compounds. The ratio of the amount of GLP-1 secreted to the cell viability in each experiment is the fold of that given bitter compound stimulating the secretion of GLP-1 of the intestinal endocrine cell line STC-1. […] Moreover, co-administering specific bitter compound, bitter taste receptor inhibitor or phospholipase C (PLC) inhibitor can further determine the bitter taste receptor corresponded to the bitter compound. The above mentioned testing methods are explained in detailed as follow:
# For the embodiment of the ability of bitter compound stimulating secretion of GLP-1 of the intestinal endocrine cell line STC-1, the experiment procedure of the stimulation of GLP-1 secretion is referred in FIG. 1.
# (§1) S3: The STC-1 cell line was treated by a bitter compound.
# (§2) S4: Supernatant was collected via centrifugation and the remaining growth medium was removed after 1 hour and the amount of cell was measured by MTT assay.
# S5: Supernatant from S4 was centrifuged again at 500×g for 5 minutes. After eliminating cell debris, the resulting supernatant was collected and stored at −80° C. for the analysis of GLP-1 secretion using commercial kit Millipore EGLP-35K. The sensitivity of the kit is between 2-100 pM. […] The result was shown in the amount of GLP-1 secreted per unit cell. To prevent over-discrepant results between batches and for the ease of statistic, each vehicle group was taken as 1, which is the comparison of result of each sample of that experiment.
# (§3) Before measuring the amount of GLP-1 secreted, all reagents were placed on ice until fully dissolved. 10× washing buffer concentrate were diluted 10 times using distilled water; STC-1 cell line was dissolved using 1 mL distilled water and was diluted 200 times using phosphate buffered saline (PBS). 300 μL/well of 1× wash buffer were added and were placed for 5 minutes at room temperature then were poured out. 200 μL/well of assay buffer were added to NSB, while 100 μL/well of assay buffer were added to the remaining wells. 100 μL of Standards, QC or STC-1 cell line were then added to the wells accordingly, and then the 96-well plate was shaken moderately for an even mixture within each well. Plates were then being sealed allowing reaction to take place at 4° C. for 20-24 hours. Plates were then washed 5 times by 300 μL/well of 1× wash buffer and placed for 5 minutes. 200 μL/well of detection conjugate was added allowing reactions to take place at room temperature for 2 hours. It was then washed 3 times by 300 μL/well of 1× wash buffer. 200 μL/well of diluted STC-1 cell line was added allowing reaction to take place at room temperature and light-free environment for approximately 20 minutes. 50 μL/well of stop solution was added to stop the reaction at room temperature and light-free environment for 5 minutes. Finally, the concentration of GLP-1 was calculated using the data obtained and the standard curve.
# Principle of MTT assay: Methylthiazolyldiphenyl-tetrazolium bromide (MTT), or 3-(4,5-cimethylthiazol-2-yl)-2,5-diphenyl tetrazolium bromide, is a yellow dye which can be reduced by dehydrogenase of mitochondria in living cells, forming an insoluble purple crystal, formazan. Thus, it is often used for the screening of the effect of materials upon the cell growth and proliferation.
# [2] = test system: intestinal endocrine cell line STC-1; experiment: GLP-1 secretion of STC-1 cells when allyl isothiocyanate and bitter taste receptor inhibitor probenecid are co-administered; type: cell-based, mouse
# From the text: The embodiment of the present invention use a proglucagon-expression cell line STC-1 for study. The STC-1 cells are divided into the experimental groups and the control group. The control groups are also called vehicle groups, which is the comparison of result of each experiment taken as 1. The secretion of GLP-1 is obtained by calculating the data gathered from the experiment using the standard curve after treating intestinal endocrine cell line STC-1 with different bitter compounds. Cell viability is measured by MTT assay after treating intestinal endocrine cell line STC-1 with different bitter compounds. The ratio of the amount of GLP-1 secreted to the cell viability in each experiment is the fold of that given bitter compound stimulating the secretion of GLP-1 of the intestinal endocrine cell line STC-1. By comparing experimental groups and vehicle groups, the difference between different bitter compounds in terms of their ability to stimulate the secretion of GLP-1 of the intestinal endocrine cell line STC-1 can be observed. Moreover, co-administering specific bitter compound, bitter taste receptor inhibitor or phospholipase C (PLC) inhibitor can further determine the bitter taste receptor corresponded to the bitter compound. The above mentioned testing methods are explained in detailed as follow:
# S1: 6.39×10^4 cells were planted with 10% FBS DMEM (high glucose) in 48-well culture tray and were incubated for 48 hours.
# S2: After 48 hours when the cell growth reached 85%, culture medium was changed into 10% FBS DMEM (low glucose) for a 3-hour starvation and then followed by the treatment of 0.2% BSA DEME (low glucose).
# as §1, §2
# S5: Supernatant from S4 was centrifuged again at 500×g for 5 minutes. After eliminating cell debris, the resulting supernatant was collected and stored at −80° C. for the analysis of GLP-1 secretion using commercial kit Millipore EGLP-35K. The sensitivity of the kit is between 2-100 pM. The amount of GLP-1 secreted of each vehicle group is between 50-150 pM according to the batch, therefore, it is advised that the supernatant being diluted 4 times before the analysis. The result was shown in the amount of GLP-1 secreted per unit cell. To prevent over-discrepant results between batches and for the ease of statistic, each vehicle group was taken as 1, which is the comparison of result of each sample of that experiment.
# as §3, with “Finally, the concentration of GLP-1 was calculated using the data obtained and the standard curve.” left out
# [3] = Mus musculus, STC-1 cells, 1 hour treatment, vehicle = 1, read-out: Fold (largest fold of GLP-1 secretion vs vehicle group)
# [4] = Mus musculus, STC-1, 1 h, read-out: Fold (largest fold of GLP-1 secretion vs vehicle group)
# [5] = STC-1 cells treated by 20 μg/mL
# [6] = STC-1 cells treated by 50 μg/mL
# [7] = STC-1 cells treated by 100 μg/mL
# [8] = STC-1 cells treated by 200 μg/mL
smiles,measurement,setting,value
"CC1=CC(=O)[N-]S(=O)(=O)O1.[K+] [Acesulfame K, reference compound]",Fold (largest fold of GLP-1 secretion vs vehicle group),"[1]; STC-1 cells, 10 mM, 1 hour treatment, vehicle = 1",↑1.90 fold
C=CCN=C=S [Allyl isothiocyanate],fold induction at 10 µM,"[1]; Mus musculus, STC-1 cells, 10 μM, 1 hour treatment, vehicle = 1, read-out: Fold (largest fold of GLP-1 secretion vs vehicle group)",4.06
same,secretion of GLP-1 comparing to the vehicle groups (in words),"[1]; STC-1 cells, 1.0 μM, 2.0 μM, 5.0 μM and 10.0 μM, dose-dependent manner",significantly increase the secretion of GLP-1
same,Fold (largest fold of GLP-1 secretion vs vehicle group),"[1]; STC-1 cells, 10 μM, 1 hour treatment, vehicle = 1",↑4.06 fold
same,"secretion of GLP-1, fold of the vehicle group","[2]; 0.5 mM of probenecid jointly applied, first of three allyl isothiocyanate concentrations, p<0.001",1.14 fold
same,"secretion of GLP-1, fold of the vehicle group","[2]; 0.5 mM of probenecid jointly applied, second of three allyl isothiocyanate concentrations, p<0.001",1.40 fold
same,"secretion of GLP-1, fold of the vehicle group","[2]; 0.5 mM of probenecid jointly applied, third of three allyl isothiocyanate concentrations, p<0.001",1.93 fold
same,"secretion of GLP-1, fold of the vehicle group","[2]; 1.0 mM of probenecid jointly applied, first of three allyl isothiocyanate concentrations, p<0.001",0.86 fold
same,"secretion of GLP-1, fold of the vehicle group","[2]; 1.0 mM of probenecid jointly applied, second of three allyl isothiocyanate concentrations, p<0.001",1.07 fold
same,"secretion of GLP-1, fold of the vehicle group","[2]; 1.0 mM of probenecid jointly applied, third of three allyl isothiocyanate concentrations, p<0.001",1.51 fold
same,"secretion of GLP-1, fold of the vehicle group","[2]; allyl isothiocyanate solely applied, first of three concentrations, p<0.05",1.44 fold
same,"secretion of GLP-1, fold of the vehicle group","[2]; allyl isothiocyanate solely applied, second of three concentrations, p<0.05",2.05 fold
same,"secretion of GLP-1, fold of the vehicle group","[2]; allyl isothiocyanate solely applied, third of three concentrations, p<0.05",3.44 fold
"COc1cc2c(cc1OC)[C@@]13CCN4CC5=CCO[C@H]6CC(=O)N2[C@H]1[C@H]6[C@H]5C[C@H]43 [Brucine, reference compound]",fold induction at 50 µM,"[1]; Mus musculus, STC-1 cells, 50 μM, 1 hour treatment, vehicle = 1, read-out: Fold (largest fold of GLP-1 secretion vs vehicle group)",1.54
"Cn1c(=O)c2c(ncn2C)n(C)c1=O [Caffeine, reference compound]",fold induction at 1000 µM,[1]; [3],1.72
"CCN(CC)CCCC(C)Nc1ccnc2cc(Cl)ccc12 (stereo not shown) [Chloroquine, reference compound]",fold induction at 5 µM,[1]; [4],1.78
"CC(C)=C/C=C/[C@@H](C)[C@H]1CC[C@@]2(C)c3ccc4c(c3CC[C@]12C)CC[C@H](O)C4(C)C [Compound of formula II, 19-nor-cucurbita-5(10),6,8,22(E),24-pentaen-3β-ol]","secretion of GLP-1, fold comparing to the vehicle group",[1]; STC-1 cells treated by 5 μg/mL,1.66 fold
same,"secretion of GLP-1, fold comparing to the vehicle group",[1]; [5],2.28 fold
same,"secretion of GLP-1, fold comparing to the vehicle group",[1]; [6],4.53 fold
same,"secretion of GLP-1, fold comparing to the vehicle group",[1]; [7],6.05 fold
same,"secretion of GLP-1, fold comparing to the vehicle group",[1]; [8],6.16 fold
"CC(C)=CC(O)C[C@@H](C)[C@H]1CC[C@@]2(C)[C@@H]3C=C[C@@]45OC[C@]3(CC[C@]12C)C4CC[C@H](O)C5(C)C (stereo partly drawn) [Compound of formula IV, 5β,19-epoxycucurbita-6,24-diene-3β,23ξ-diol]","secretion of GLP-1, fold comparing to the vehicle group",[1]; STC-1 cells treated by 5 μg/mL,1.37 fold
same,"secretion of GLP-1, fold comparing to the vehicle group",[1]; [5],1.49 fold
same,"secretion of GLP-1, fold comparing to the vehicle group",[1]; [6],1.84 fold
same,"secretion of GLP-1, fold comparing to the vehicle group",[1]; [7],2.76 fold
same,"secretion of GLP-1, fold comparing to the vehicle group",[1]; [8],3.68 fold
"CC[N+](CC)(CC(=O)Nc1c(C)cccc1C)Cc1ccccc1 [Denatonium benzoate, reference compound]",fold induction at 2500 µM,"[1]; Mus musculus, STC-1 cells, 2.5 mM, 1 hour treatment, vehicle = 1, read-out: Fold (largest fold of GLP-1 secretion vs vehicle group)",2.97
"CC1(C)O[C@H]2CC(=O)OC[C@]23[C@H]2CC[C@@]4(C)[C@H](c5ccoc5)OC(=O)[C@H]5O[C@]54[C@]2(C)C(=O)C[C@@H]13 [Limonin, reference compound]",fold induction at 200 µM,"[1]; Mus musculus, STC-1 cells, 200 μM, 1 hour treatment, vehicle = 1, read-out: Fold (largest fold of GLP-1 secretion vs vehicle group)",1.22
"C=C[C@H]1C[N@@]2CC[C@H]1C[C@H]2[C@H](O)c1ccnc2ccc(OC)cc12 [Quinine, reference compound]",fold induction at 80 µM,"[1]; Mus musculus, STC-1 cells, 80 μM, 1 hour treatment, vehicle = 1, read-out: Fold (largest fold of GLP-1 secretion vs vehicle group)",1.9
"O=C1NS(=O)(=O)c2ccccc21 [Saccharin, reference compound]",fold induction at 1000 µM,[1]; [3],4.84
"O=C1C[C@@H]2OCC=C3CN4CC[C@]56c7ccccc7N1[C@H]5[C@H]2[C@H]3C[C@H]46 [Strychnine, reference compound]",fold induction at 50 µM,[1]; [4],1.91
